Source: US11040981B2, “Pyrrolotriazine compounds and methods of inhibiting TAM kinases” (Syros Pharmaceuticals, Inc., priority 2017, dated 2021)

What was measured:
AXL = target: T1, AXL (Homo sapiens, UniProt P30530); test: TR-FRET kinase activity assay, AXL; type: biochemical; conditions: ATP at Km, 60 minutes
T1 sequence (P30530 26-894): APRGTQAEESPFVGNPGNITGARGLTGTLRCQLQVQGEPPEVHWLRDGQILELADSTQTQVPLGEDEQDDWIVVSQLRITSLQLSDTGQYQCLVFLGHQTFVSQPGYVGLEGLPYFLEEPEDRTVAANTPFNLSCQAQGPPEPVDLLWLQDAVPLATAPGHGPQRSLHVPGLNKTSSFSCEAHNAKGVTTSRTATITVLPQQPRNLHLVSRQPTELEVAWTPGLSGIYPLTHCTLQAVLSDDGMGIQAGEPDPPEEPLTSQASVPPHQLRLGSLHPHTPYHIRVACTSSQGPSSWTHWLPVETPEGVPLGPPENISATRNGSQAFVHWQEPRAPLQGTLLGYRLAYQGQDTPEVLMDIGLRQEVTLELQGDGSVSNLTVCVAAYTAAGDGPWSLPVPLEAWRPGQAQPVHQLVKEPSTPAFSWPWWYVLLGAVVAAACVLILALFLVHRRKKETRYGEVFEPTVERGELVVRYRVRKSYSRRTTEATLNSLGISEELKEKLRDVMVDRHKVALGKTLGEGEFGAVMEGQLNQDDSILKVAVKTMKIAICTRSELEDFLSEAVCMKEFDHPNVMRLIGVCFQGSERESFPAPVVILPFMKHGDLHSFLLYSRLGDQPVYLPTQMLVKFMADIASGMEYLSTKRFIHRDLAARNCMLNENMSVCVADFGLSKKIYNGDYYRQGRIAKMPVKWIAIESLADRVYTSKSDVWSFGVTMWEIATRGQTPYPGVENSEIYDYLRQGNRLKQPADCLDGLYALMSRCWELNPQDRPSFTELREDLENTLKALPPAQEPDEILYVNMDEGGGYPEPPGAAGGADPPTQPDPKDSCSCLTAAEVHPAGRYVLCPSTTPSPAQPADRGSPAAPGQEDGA
Procedure, shortened: (§1)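 Inhibition is measured as loss of phospho-peptide formation: kinase, fluorescent tyrosine peptide and compound are combined, ATP is added at Km, and the reaction proceeds 60 min at RT in pH 7.5 HEPES buffer. An EDTA stop and Eu-labelled phospho-specific antibody allow TR-FRET detection for IC50 fitting.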

FLT3 = target: T2, FLT3 (Homo sapiens, UniProt P36888); test: TR-FRET kinase activity assay, FLT3; type: biochemical; conditions: ATP at Km, 60 minutes
T2 sequence (P36888 27-993): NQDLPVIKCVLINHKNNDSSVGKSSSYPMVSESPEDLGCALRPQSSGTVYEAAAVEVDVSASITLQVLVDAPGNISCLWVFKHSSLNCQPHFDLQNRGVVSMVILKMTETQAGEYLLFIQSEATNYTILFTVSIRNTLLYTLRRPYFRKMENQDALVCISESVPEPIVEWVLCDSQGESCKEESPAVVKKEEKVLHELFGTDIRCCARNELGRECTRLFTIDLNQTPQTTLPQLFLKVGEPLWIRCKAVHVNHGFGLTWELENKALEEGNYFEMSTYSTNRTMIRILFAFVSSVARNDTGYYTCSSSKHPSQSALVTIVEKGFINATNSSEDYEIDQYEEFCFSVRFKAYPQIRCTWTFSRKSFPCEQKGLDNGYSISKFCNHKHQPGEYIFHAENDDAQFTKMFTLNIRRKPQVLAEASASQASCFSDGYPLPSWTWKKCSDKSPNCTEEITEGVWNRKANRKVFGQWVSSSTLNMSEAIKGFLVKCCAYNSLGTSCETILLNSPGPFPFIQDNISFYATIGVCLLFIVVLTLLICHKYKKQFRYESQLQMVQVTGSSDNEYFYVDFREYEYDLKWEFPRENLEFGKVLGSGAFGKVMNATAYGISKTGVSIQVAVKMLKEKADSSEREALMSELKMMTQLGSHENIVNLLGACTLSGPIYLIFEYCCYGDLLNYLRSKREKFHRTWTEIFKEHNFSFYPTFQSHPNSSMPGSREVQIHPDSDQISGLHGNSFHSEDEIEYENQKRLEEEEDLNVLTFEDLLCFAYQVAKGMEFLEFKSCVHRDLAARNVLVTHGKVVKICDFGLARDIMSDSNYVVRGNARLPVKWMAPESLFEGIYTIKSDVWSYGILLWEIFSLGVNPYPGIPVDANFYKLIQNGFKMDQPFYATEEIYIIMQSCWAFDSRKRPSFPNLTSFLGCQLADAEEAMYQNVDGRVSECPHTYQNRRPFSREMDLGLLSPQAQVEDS
Procedure, shortened: as §1

Row | SMILES | IC50 (AXL) [nM] | IC50 (FLT3) [nM]
1 | CCCCC[C@H](C)Nc1ncc2c(-c3ccc(S(=O)(=O)N4CCOCC4)cc3)cc([C@H]3CC[C@@H](O)CC3)n2n1 [Compound 103, (1R,4s)-4-(2-((S)-heptan-2-ylamino)-5-(4-(morpholinosulfonyl)phenyl)pyrrolo[2,1-f][1,2,4]triazin-7-yl)cyclohexanol] | 100 to 1000 | 100 to 1000
2 | COCC(C)Nc1ncc2c(-c3ccc(C4(N5CCN(C)CC5)CC4)cc3)cc(C3CCC(O)CC3)n2n1 (stereo not drawn) [Compound 185] | ≤ 100 | 100 to 1000
3 | COC[C@H](C)Nc1ncc2c(-c3cn(C)cn3)cc([C@H]3CC[C@H](O)CC3)n2n1 [Compound 186] | 100 to 1000 | 100 to 1000
4 | COC[C@H](C)Nc1ncc2c(-c3ccc(C(=O)N4CCOCC4)cc3)cc([C@H]3CC[C@H](O)CC3)n2n1 [Compound 187, (4-(7-((trans)-4-hydroxycyclohexyl)-2-(((S)-1-methoxypropan-2-yl)amino)pyrrolo[2,1-f][1,2,4]triazin-5-yl)phenyl)(morpholino)methanone] | ≤ 100 | 100 to 1000
5 | C[C@@H](COC(F)F)Nc1ncc2c(-c3ccc(CN4CCOCC4)cc3)cc([C@H]3CC[C@H](O)CC3)n2n1 [Compound 188] | ≤ 100 | ≤ 100
6 | CC(CC1CC1)Nc1ncc2c(-c3ccc(CN4CCOCC4)cc3)cc(C3CCC(O)CC3)n2n1 (stereo not drawn) [Compound 189] | ≤ 100 | ≤ 100
7 | Cc1cc(-c2cc(C3CCC(O)CC3)n3nc(NC(C)CC4CC4)ncc23)ccn1 (stereo not drawn) [Compound 190] | ≤ 100 | ≤ 100
8 | COCC(C)Nc1ncc2c(C3CC4CCC(C3)N4C)cc(C3CCC(O)CC3)n2n1 (stereo not drawn) [Compound 191] | 100 to 1000 | 1000 to 10000
9 | COCC(C)Nc1ncc2c(N3CCOCC3=O)cc(C3CCC(O)CC3)n2n1 (stereo not drawn) [Compound 192] | 1000 to 10000 | 1000 to 10000
